Source: US11147884B2, “Inhibitors of NHE-mediated antiport” (Ardelyx, Inc., priority 2017, dated 2021)

How the values were obtained:
[1] = human absorption data, from Ertl et al., J. Med. Chem., 2000; cited from earlier work
human NHE3 [2] = target: T1, human NHE3 (Homo sapiens, UniProt P48764); experiment: Cell-based assay of NHE-3 activity (persistent inhibition after washout), human; settings: human Persistence assay; after 60 min incubation and washout
T1 construct: host or cells: PS120 fibroblasts
T1 sequence (P48764 26-834): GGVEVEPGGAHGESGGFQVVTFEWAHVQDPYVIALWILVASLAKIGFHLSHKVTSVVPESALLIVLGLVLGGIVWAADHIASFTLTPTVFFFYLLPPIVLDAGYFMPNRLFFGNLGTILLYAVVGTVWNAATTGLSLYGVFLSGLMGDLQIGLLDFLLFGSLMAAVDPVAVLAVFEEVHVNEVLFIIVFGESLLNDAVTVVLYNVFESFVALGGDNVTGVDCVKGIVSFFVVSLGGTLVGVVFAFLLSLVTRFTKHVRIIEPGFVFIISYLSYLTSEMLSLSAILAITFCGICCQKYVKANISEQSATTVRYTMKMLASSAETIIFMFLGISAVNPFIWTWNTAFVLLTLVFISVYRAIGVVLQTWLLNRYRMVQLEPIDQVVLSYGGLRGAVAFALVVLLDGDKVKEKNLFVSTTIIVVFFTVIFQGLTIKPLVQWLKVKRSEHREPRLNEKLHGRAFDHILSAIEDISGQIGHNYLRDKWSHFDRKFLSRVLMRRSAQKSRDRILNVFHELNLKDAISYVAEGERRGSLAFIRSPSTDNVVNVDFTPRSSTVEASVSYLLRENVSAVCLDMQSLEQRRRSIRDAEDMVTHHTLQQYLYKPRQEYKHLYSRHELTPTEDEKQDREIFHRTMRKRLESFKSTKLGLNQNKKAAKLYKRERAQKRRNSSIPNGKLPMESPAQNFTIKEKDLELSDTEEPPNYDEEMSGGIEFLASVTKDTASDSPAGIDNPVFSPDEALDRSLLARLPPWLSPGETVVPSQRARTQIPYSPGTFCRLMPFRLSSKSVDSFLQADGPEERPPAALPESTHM
T1 sequence (Q99653 2-195 partner limits assumed): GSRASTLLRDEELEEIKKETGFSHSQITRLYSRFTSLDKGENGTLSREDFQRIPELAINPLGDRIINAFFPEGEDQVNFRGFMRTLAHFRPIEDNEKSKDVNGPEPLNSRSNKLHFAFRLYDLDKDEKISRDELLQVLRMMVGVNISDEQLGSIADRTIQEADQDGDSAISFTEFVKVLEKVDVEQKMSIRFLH
Procedure: The ability of compounds to inhibit human and rat NHE-3-mediated Na^+-dependent H^+ antiport after application and washout was measured using a modification of the pH sensitive dye method described above. PS120 fibroblasts stably expressing human NHE3 and NHERF2 were obtained from Mark Donowitz (Baltimore, Md.). Opossum kidney (OK) cells were obtained from the ATCC and propagated per their instructions. The rat NHE-3 gene was introduced into OK cells via electroporation, and cells were seeded into 96 well plates and grown overnight. Medium was aspirated from the wells, cells were washed once with NaCl-HEPES buffer (100 mM NaCl, 50 mM HEPES, 10 mM glucose, 5 mM KCl, 2 mM CaCl2, 1 mM MgCl2, pH 7.4), then overlayed with NaCl-HEPES buffer containing 0-30 μM test compound. After a 60 min incubation at room temperature, the test drug containing buffer was aspirated from the cells. Following aspiration, cells were washed once with NaCl-HEPES buffer without drug, then incubated for 30 min at 37° C. with NH4Cl-HEPES buffer (20 mM NH4Cl, 80 mM NaCl, 50 mM HEPES. 5 mM KCl, 2 mM CaCl2), 1 mM MgCl2, pH 7.4) containing 5 μM BCECF-AM. Cells were washed once with Ammonium free, Na^+-free HEPES (100 mM choline, 50 mM HEPES, 10 mM glucose. 5 mM KCl, 2 mM CaCl2), 1 mM MgCl2, pH 7.4) and incubated in the same buffer for 10 minutes at room temperature to lower intracellular pH. NHE-3-mediated recovery of neutral intracellular pH was initiated (10 min after compound washout) by addition of Na-HEPES buffer. […] Changes in intracellular pH were monitored using a FLIPR Tetra® (Molecular Devices, Sunnyvale, Calif.) by excitation at λex 439 to 505 nm, and measuring BCECF fluorescence at λem 538 nm. The initial rate of the fluorescence ratio change was used as a measure of NHE-mediated Na^+/H^+ activity, and reported as the change in fluorescence ratio per minute.

human NHE3 [3] = target: T1, human NHE3; experiment: Cell-based assay of NHE-3 activity (pre-incubation inhibition), human; settings: human Preincuba assay; PS120 fibroblasts expressing human NHE3 and NHERF2
Procedure: Rat and human NHE-3-mediated Na^+-dependent H^+ antiport was measured using a modification of the pH sensitive dye method originally reported by Paradiso (Proc. Natl. Acad. Sci. USA. (1984) 81(23): 7436-7440). PS120 fibroblasts stably expressing human NHE3 and NHERF2 were obtained from Mark Donowitz (Baltimore, Md.). Opossum kidney (OK) cells were obtained from the ATCC and propagated per their instructions. The rat NHE-3 gene (GenBank M85300) was introduced into OK cells via electroporation, and cells were seeded into 96 well plates and grown overnight. Medium was aspirated from the wells then incubated for 30 min at 37° C. with NH4Cl-HEPES buffer (20 mM […], 80 mM NaCl, 50 mM HEPES, 5 mM KCl, 2 mM CaCl2, 1 mM MgCl2, pH 7.4) containing 5 μM BCECF-AM. Cells were washed once with Ammonium free, Na^t-free HEPES (100 mM choline, 50 mM HEPES, 10 mM glucose, 5 mM KCl, 2 mM CaCl2), 1 mM MgCl2, pH 7.4) and incubated in the same buffer for 10 minutes at room temperature to lower intracellular pH with 0-30 μM test compound. […] Changes in intracellular pH were monitored using a FLIPR Tetra®® (Molecular Devices, Sunnyvale, Calif.) by excitation at λex 439 to 505 nm, and measuring BCECF fluorescence at λem 538 nm. The initial rate of the fluorescence ratio change was used as a measure of NHE-mediated Na^+/H^+ activity, and reported as the change in fluorescence ratio per minute.

% inhibition (human NHE3 [2]) | IC50 (human NHE3 [2]) | % inhibition (human NHE3 [3]) | IC50 (human NHE3 [3]) | SMILES | $ FA [1]
– | – | – | – | OC[C@H]1O[C@@H](O[C@@H]2[C@@H](CO)OC(O)(CO)[C@H]2O)[C@H](O)[C@@H](O)[C@H]1O (mixture of isomers) [lactulose] | 0.6
C (>70%) | < 100 nM | C (>70%) | < 100 nM | CN1Cc2c(Cl)cc(Cl)cc2C(c2cccc(S(=O)(=O)N[C@@H]3CCN(CCOCCNC(=O)NCCCCNC(=O)NCCOCCN4CC[C@@H](NS(=O)(=O)c5cccc(C6CN(C)Cc7c(Cl)cc(Cl)cc76)c5)C4)C3)c2)C1 (stereo partly drawn) [Example 24, N,N′-[(3R,3′R)-(7,14-Dioxo-3,18-dioxa-6,8,13,15-tetraazaicosane-1,20-diyl)bis(pyrrolidine-1,3-diyl)]bis[3-(6,8-dichloro-2-methyl-1,2,3,4-tetrahydroisoquinolin-4-yl)benzenesulfonamide]] | –
C (>70%) | 100 to 1000 nM | C (>70%) | < 100 nM | CN1Cc2c(Cl)cc(Cl)cc2[C@H](c2cccc(S(=O)(=O)NC(C)(C)COCCOCCNC(=O)NCCCCNC(=O)NCCOCCOCC(C)(C)NS(=O)(=O)c3cccc([C@@H]4CN(C)Cc5c(Cl)cc(Cl)cc54)c3)c2)C1 [Example 47, 3-(2-[2-[2-([3-[(4S)-6,8-dichloro-2-methyl-1,2,3,4-tetrahydroisoquinolin-4-yl]benzene]sulfonamido)-2-methylpropoxy]ethoxy]ethyl)-1-(4-[[(2-[2-[2-([3-[(4S)-6,8-dichloro-2-methyl-1,2,3,4-tetrahydroisoquinolin-4-yl]benzene]sulfonamido)-2-methylpropoxy]ethoxy]ethyl)carbamoyl]amino]butyl)urea] | –
C (>70%) | 100 to 1000 nM | C (>70%) | < 100 nM | CN1Cc2c(Cl)cc(Cl)cc2[C@H](c2cccc(S(=O)(=O)N3CCC(OCCOCCNC(=O)NCCCCNC(=O)NCCOCCOC4CCN(S(=O)(=O)c5cccc([C@@H]6CN(C)Cc7c(Cl)cc(Cl)cc76)c5)CC4)CC3)c2)C1 [Example 48] | –
C (>70%) | 100 to 1000 nM | C (>70%) | < 100 nM | CN1Cc2c(Cl)cc(Cl)cc2[C@H](c2cccc(S(=O)(=O)N3CC[C@@H](OCCOCCNC(=O)NCCCCNC(=O)NCCOCCO[C@@H]4CCN(S(=O)(=O)c5cccc([C@@H]6CN(C)Cc7c(Cl)cc(Cl)cc76)c5)C4)C3)c2)C1 [Example 49, 1-(2-(2-(((R)-1-((3-((S)-6,8-dichloro-2-methyl-1,2,3,4-tetrahydroisoquinolin-4-yl)phenyl)sulfonyl)pyrrolidin-3-yl)oxy)ethoxy)ethyl)-3-(4-(3-(2-(2-(((R)-1-((3-((S)-6,8-dichloro-2-methyl-1,2,3,4-tetrahydroisoquinolin-4-yl)phenyl)sulfonyl)pyrrolidin-3-yl)oxy)ethoxy)ethyl)ureido)buty)urea] | –
C (>70%) | 100 to 1000 nM | C (>70%) | < 100 nM | CN1Cc2c(Cl)cc(Cl)cc2[C@H](c2cccc(S(=O)(=O)N3CC[C@H](OCCOCCNC(=O)NCCCCNC(=O)NCCOCCO[C@H]4CCN(S(=O)(=O)c5cccc([C@@H]6CN(C)Cc7c(Cl)cc(Cl)cc76)c5)C4)C3)c2)C1 [Example 50] | –
A (NHE3 <40%) | > 1000 nM | A (NHE3 <40%) | > 1000 nM | CC(C)[C@H](COCCOCCNC(=O)NCCCCNC(=O)NCCOCCOC[C@H](NS(=O)(=O)c1cccc([C@@H]2CN(C)Cc3c(Cl)cc(Cl)cc32)c1)C(C)C)NS(=O)(=O)c1cccc([C@@H]2CN(C)Cc3c(Cl)cc(Cl)cc32)c1 [Example 51] | –
– | – | – | – | C=CCc1ccccc1OCC(O)CNC(C)C (stereo not shown) [alprenolol] | 96
– | – | – | – | O=C(O)P(=O)(O)O [foscarnet] | 17
– | – | – | – | OC[C@@H](O)[C@@H](O)[C@H](O)[C@H](O)CO [mannitol] | 26
– | – | – | – | Cc1ccccc1N1C(=O)c2cc(S(N)(=O)=O)c(Cl)cc2NC1C (stereo not shown) [metolazone] | 64
– | – | – | – | O=C(O)c1cc(/N=N/c2ccc(O)c(C(=O)O)c2)ccc1O [olsalazine] | 2.3
– | – | – | – | C=CCOc1ccccc1OCC(O)CNC(C)C (stereo not shown) [oxyprenolol] | 97
– | – | – | – | CC(C)NCC(O)COc1cccc2[nH]ccc12 (stereo not shown) [pindolol] | 92
– | – | – | – | CC(=O)Nc1ccc(OCC(O)CNC(C)C)cc1 (stereo not shown) [practolol] | 95
– | – | – | – | OC[C@H]1O[C@H](OC[C@H]2O[C@H](O[C@]3(CO)O[C@H](CO)[C@@H](O)[C@@H]3O)[C@H](O)[C@@H](O)[C@@H]2O)[C@H](O)[C@@H](O)[C@H]1O [raffinose] | 0.3
– | – | – | – | O=C(O)c1cc(/N=N/c2ccc(S(=O)(=O)Nc3ccccn3)cc2)ccc1O [sulfasalazine] | 12
– | – | – | – | CCN1CCCC1CNC(=O)c1cc(S(N)(=O)=O)ccc1OC (stereo not shown) [sulpiride] | 36
– | – | – | – | NC[C@H]1CC[C@H](C(=O)O)CC1 [tranexamic acid] | 55
